The results in this text go back to PubChem BioAssay AID2742 (NMMLSC, 2010).

Structures are written as SMILES. Active and inactive are the calls of the source.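 Rule for the calls: active = fitted half-maximal concentration for changing background-corrected GFP signal at or below a set limit; inactive = the rest.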

This experiment in a line: TOR pathway reporter MEP2-GFP, concentration series – S. cerevisiae, flow cytometry GFP, MLPCN hits, dose response (AID 2742).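 Note: GFP tag reports level of MEP2 protein as a downstream target of TOR signalling.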 As to conditions: S. cerevisiae MEP2-GFP strain, flow cytometry fluorescence, 3 h; at 33 µM (top of the series).
In the case of `CCOC(=O)CS(=O)(=O)c1nc(-c2ccc(F)cc2)cc(C(F)(F)F)n1`, the GFP fluorescence (kMESF), higher = increase was 5.21 kMESF (inactive).

As for `CS(=O)(=O)N1N=C(c2ccccc2)CC1c1ccc2c(c1)OCO2` (stereo not given), the GFP fluorescence (kMESF), higher = increase was 78.8 kMESF (inactive).

`O=c1c2sc(-c3ccccc3)cc2nc2n1CCC2`: the GFP fluorescence (kMESF), higher = increase is 3.03 kMESF (inactive).

As for `COc1ccc([N+](=O)[O-])c(S(=O)(=O)c2ccccc2)n1`, the GFP fluorescence (kMESF), higher = increase is 3.41 kMESF (inactive).

Turning to `CCOC(=O)c1c(C)oc2c1c(C(c1cccnc1)N1CCOCC1)c(O)c1ccccc12` (stereo not given), the GFP fluorescence (kMESF), higher = increase is 4.43 kMESF (inactive).

As for `CN(C)/C=C/C(=O)c1ccc(-c2ccc(Cl)cc2Cl)o1`, the GFP fluorescence (kMESF), higher = increase was 2 kMESF (inactive).

For `COc1ccc(N/N=C(\C#N)C(N)=O)cc1`, the GFP fluorescence (kMESF), higher = increase is 1.24 kMESF (inactive).

For `COc1ccc(C2(C)ON(c3ccccc3C(F)(F)F)C2=O)cc1` (stereo not given), the GFP fluorescence (kMESF), higher = increase is 2.87 kMESF (inactive).

Take `O=C(Nc1ccccc1)c1nnsc1S(=O)(=O)c1ccc(Cl)cc1`: the GFP fluorescence (kMESF), higher = increase is 6.03 kMESF (inactive).

Turning to `O=C(/C=C/c1cc(Br)ccc1O)c1ccco1`, the GFP fluorescence (kMESF), higher = increase is 6.67 kMESF (inactive).

Turning to `Cc1ccc(N2C(=O)C(Cl)=C(Nc3c(C)n(C)n(-c4ccccc4)c3=O)C2=O)cc1`, the GFP fluorescence (kMESF), higher = increase is 1.97 kMESF (inactive).

As for `CCOc1ccc(C(C)=O)cc1N1C(=O)C2C3C=CC(O3)C2C1=O` (stereo not given), the GFP fluorescence (kMESF), higher = increase was 3.31 kMESF (inactive).

For `CC(=O)Oc1ccc(N2C(=O)C3C4C=CC(O4)C3C2=O)cc1` (stereo not given), the GFP fluorescence (kMESF), higher = increase was 3.13 kMESF (inactive).

On to `O=C(c1ccc(C(=O)N2CCCc3ccccc32)s1)N1CCCc2ccccc21`, for which the GFP fluorescence (kMESF), higher = increase is 3.28 kMESF (inactive).

As to `CCCc1cc(=O)oc2cc(C)cc(OCC(=O)NC3CC3)c12`, the GFP fluorescence (kMESF), higher = increase is 1.67 kMESF (inactive).

Regarding `O=C(COc1ccccc1)NNC(=S)NC(=O)c1ccccc1`, the GFP fluorescence (kMESF), higher = increase is 2.59 kMESF (inactive).

For `CSc1nnc2c3cc(F)ccc3n(C)c2n1`, the GFP fluorescence (kMESF), higher = increase was 2.36 kMESF (inactive).

On to `O=C(O)c1ccccc1SC1CC(=O)N(c2ccc3c(c2)OCO3)C1=O` (stereo not given), for which the GFP fluorescence (kMESF), higher = increase was 3.4 kMESF (inactive).

With `CCc1ccc2c(c1)/C(=C/C(=O)c1cccs1)C(=O)N2`, the GFP fluorescence (kMESF), higher = increase is 3.95 kMESF (inactive).

Regarding `O=C(O)c1cc[c]([Hg][Cl])cc1`, the GFP fluorescence (kMESF), higher = increase was 4.47 kMESF (inactive).

As to `Cc1ccc(C(=O)O)cc1N=Cc1cc(Br)cc(Br)c1O`, the GFP fluorescence (kMESF), higher = increase is 5.7 kMESF (inactive).

In the case of `O=[N+]([O-])c1cc(CN2CCN(c3cccc(C(F)(F)F)c3)CC2)c2cccnc2c1O`, the GFP fluorescence (kMESF), higher = increase was 4.44 kMESF (inactive).

`CCN(CC)c1ccc2cc(-c3nc4ccccc4[nH]3)c(=O)oc2c1`: the GFP fluorescence (kMESF), higher = increase is 6.39 kMESF (inactive).

`N/C(=N\OC(=O)c1ccc(Cl)cc1Cl)c1ccccc1`: the GFP fluorescence (kMESF), higher = increase was 3.21 kMESF (inactive).

`CCCCC1OC23CCCCC2C(C#N)(C(=N)O3)C1(C#N)C#N` (stereo not given): the GFP fluorescence (kMESF), higher = increase is 3.37 kMESF (inactive).

Turning to `O=c1oc2cc(Oc3c([N+](=O)[O-])cc(C(F)(F)F)cc3[N+](=O)[O-])ccc2c2c1CCCC2`, the GFP fluorescence (kMESF), higher = increase is 4.77 kMESF (inactive).

With `CCCCOc1ccc(C(=O)NNC(=S)NC(=O)CC)cc1`, the GFP fluorescence (kMESF), higher = increase was 6.17 kMESF (inactive).

`O=C1C(=O)c2ccccc2-c2ccccc21`: the GFP fluorescence (kMESF), higher = increase was 2.76 kMESF (inactive).

Take `CC(C)C[C@]1(c2ccccc2)ON(c2ccccc2C(F)(F)F)C1=O`: the GFP fluorescence (kMESF), higher = increase is 2.97 kMESF (inactive).

Take `CCN(CC(=O)NC(C)(C)C)C(=O)COc1c(Cl)cc(Cl)c2ccc(C)nc12`: the GFP fluorescence (kMESF), higher = increase was 6.41 kMESF (inactive).

Regarding `Cc1ccc(O)c(N=Nc2nccs2)c1`, the GFP fluorescence (kMESF), higher = increase is 2.87 kMESF (inactive).

As for `O=C(C#Cc1cccc([N+](=O)[O-])c1)c1ccccc1`, the GFP fluorescence (kMESF), higher = increase was 3.98 kMESF (inactive).

With `N#Cc1cc([N+](=O)[O-])c(-n2nnc3ccccc32)c([N+](=O)[O-])c1`, the GFP fluorescence (kMESF), higher = increase was 3.54 kMESF (inactive).

For `COc1ccccc1-c1nc2s/c(=C\c3cccs3)c(=O)n2n1`, the GFP fluorescence (kMESF), higher = increase is 5.28 kMESF (inactive).

For `O=[N+]([O-])c1ccc(S(=O)(=O)c2cccc(C(F)(F)F)c2)nc1`, the GFP fluorescence (kMESF), higher = increase is 4.85 kMESF (inactive).

As to `O=[N+]([O-])c1ccc(N=Nc2c(Cl)cc(O)cc2Cl)cc1`, the GFP fluorescence (kMESF), higher = increase was 4.93 kMESF (inactive).

As for `Cc1ccc(C(=O)Sc2cccccc2=O)cc1`, the GFP fluorescence (kMESF), higher = increase is 3.82 kMESF (inactive).

Take `Cc1ccc(/C=C2/SC(=S)N(C3CCCCC3)C2=O)o1`: the GFP fluorescence (kMESF), higher = increase was 4.94 kMESF (inactive).

Regarding `Cc1ccc2c(nc3s/c(=C\c4ccc(-c5ccccc5C(=O)O)o4)c(=O)n32)c1C`, the GFP fluorescence (kMESF), higher = increase is 25.5 kMESF (inactive).

In the case of `CC(OC(=O)c1ccco1)C(=O)Nc1nc(-c2ccccc2)cs1` (stereo not given), the GFP fluorescence (kMESF), higher = increase is 2.67 kMESF (inactive).

`O=C1Nc2ccc(Br)cc2/C1=C/C(=O)c1ccc2c(c1)OCO2`: the GFP fluorescence (kMESF), higher = increase was 4.66 kMESF (inactive).

In the case of `C[n+]1ccc(/C=C/c2c[nH]c3ccccc23)cc1`, the GFP fluorescence (kMESF), higher = increase was 7.26 kMESF (inactive).

With `O=c1c2cnn(-c3ccccc3)c2ncn1Cc1ccco1`, the GFP fluorescence (kMESF), higher = increase was 1.97 kMESF (inactive).

For `O=C(NC(=S)NNC(=O)c1cnccn1)c1ccc(Cl)cc1`, the GFP fluorescence (kMESF), higher = increase is 3.51 kMESF (inactive).

As for `O=C(/C=C/c1cccc(Cl)c1)c1nc2ccccc2[nH]1`, the GFP fluorescence (kMESF), higher = increase was 3.3 kMESF (inactive).

For the compound `c1ccc(-c2cccc(-c3ccccn3)n2)nc1`, the GFP fluorescence (kMESF), higher = increase is 2.86 kMESF (inactive).

For the compound `O=C1C(Cl)=C(NCCc2ccccc2)C(=O)N1CCc1ccccc1`, the GFP fluorescence (kMESF), higher = increase is 2.91 kMESF (inactive).

Consider `COC(=O)CCC(=O)OC1(C)C(=O)C2=COC(c3ccc(OC)cc3)=CC2=C(Br)C1=O` (stereo not given), for which the GFP fluorescence (kMESF), higher = increase is 0.26 kMESF (inactive).

On to `Cc1[nH]n(-c2ncc(-c3ccccc3)s2)c(=O)c1C(c1ccc(Cl)cc1)C(C#N)C#N` (stereo not given), for which the GFP fluorescence (kMESF), higher = increase was 4.02 kMESF (inactive).

Turning to `COc1ccc(NC2=C(Cl)C(=O)N(CCc3ccccc3)C2=O)c(OC)c1`, the GFP fluorescence (kMESF), higher = increase was 1.67 kMESF (inactive).

In the case of `Cc1[nH]c2ccccc2c1C(=O)COC(=O)c1ccc([N+](=O)[O-])s1`, the GFP fluorescence (kMESF), higher = increase was 0.4 kMESF (inactive).

`COc1cc(/C=C2/C(=O)ON=C2c2ccccc2)ccc1O`: the GFP fluorescence (kMESF), higher = increase is 3.68 kMESF (inactive).

As for `CCOc1ccc(N2C(=O)/C(=C\c3cccs3)C(=O)NC2=S)cc1`, the GFP fluorescence (kMESF), higher = increase was 3.57 kMESF (inactive).

Turning to `O=C(/C=C/c1ccc(Br)cc1)NC(=S)NNC(=O)c1ccco1`, the GFP fluorescence (kMESF), higher = increase is 3.07 kMESF (inactive).

Turning to `CCCS(=O)(=O)c1nnnn1-c1cccc(OC)c1`, the GFP fluorescence (kMESF), higher = increase is 2.18 kMESF (inactive).
